Source: ChEMBL document CHEMBL4428091, “Design and optimization of (3-aryl-1H-indazol-6-yl)spiro[cyclopropane-1,3'-indolin]-2'-ones as potent PLK4 inhibitors with oral antitumor efficacy” (Bioorg Med Chem Lett, 2016)

Key:
[1] = target: T1, Serine/threonine-protein kinase PLK4 (Homo sapiens, UniProt O00444); assay: Inhibition of PLK4 (unknown origin)
T1 sequence (O00444 whole entry): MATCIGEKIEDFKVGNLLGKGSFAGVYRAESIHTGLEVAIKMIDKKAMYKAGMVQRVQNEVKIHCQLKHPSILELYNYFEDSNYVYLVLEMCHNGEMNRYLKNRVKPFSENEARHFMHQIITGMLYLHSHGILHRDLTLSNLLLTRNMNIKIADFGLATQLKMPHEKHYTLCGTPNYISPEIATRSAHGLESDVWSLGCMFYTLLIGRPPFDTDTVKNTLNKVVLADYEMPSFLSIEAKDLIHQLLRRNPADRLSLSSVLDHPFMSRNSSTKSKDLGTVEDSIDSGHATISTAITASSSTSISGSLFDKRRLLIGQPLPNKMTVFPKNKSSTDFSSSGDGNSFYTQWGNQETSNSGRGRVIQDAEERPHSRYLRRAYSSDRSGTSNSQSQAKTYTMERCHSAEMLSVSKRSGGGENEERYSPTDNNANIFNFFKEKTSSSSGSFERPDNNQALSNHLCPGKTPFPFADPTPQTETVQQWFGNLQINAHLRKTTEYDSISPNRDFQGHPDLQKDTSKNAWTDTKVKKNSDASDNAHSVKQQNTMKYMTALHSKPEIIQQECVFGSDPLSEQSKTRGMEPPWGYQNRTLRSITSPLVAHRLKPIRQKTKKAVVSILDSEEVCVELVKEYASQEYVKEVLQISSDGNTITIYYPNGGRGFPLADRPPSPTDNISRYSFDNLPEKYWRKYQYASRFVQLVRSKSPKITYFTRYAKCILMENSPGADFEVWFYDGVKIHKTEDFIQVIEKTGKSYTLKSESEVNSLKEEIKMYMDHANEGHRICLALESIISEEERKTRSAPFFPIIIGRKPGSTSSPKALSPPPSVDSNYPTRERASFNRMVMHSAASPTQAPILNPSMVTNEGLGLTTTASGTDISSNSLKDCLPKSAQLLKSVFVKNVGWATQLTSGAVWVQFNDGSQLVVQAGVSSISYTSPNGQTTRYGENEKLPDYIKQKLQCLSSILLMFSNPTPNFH

[2] = target: T2, Receptor-type tyrosine-protein kinase FLT3 (Homo sapiens, UniProt P36888); assay: Inhibition of FLT3 (unknown origin)
T2 sequence (P36888 whole entry): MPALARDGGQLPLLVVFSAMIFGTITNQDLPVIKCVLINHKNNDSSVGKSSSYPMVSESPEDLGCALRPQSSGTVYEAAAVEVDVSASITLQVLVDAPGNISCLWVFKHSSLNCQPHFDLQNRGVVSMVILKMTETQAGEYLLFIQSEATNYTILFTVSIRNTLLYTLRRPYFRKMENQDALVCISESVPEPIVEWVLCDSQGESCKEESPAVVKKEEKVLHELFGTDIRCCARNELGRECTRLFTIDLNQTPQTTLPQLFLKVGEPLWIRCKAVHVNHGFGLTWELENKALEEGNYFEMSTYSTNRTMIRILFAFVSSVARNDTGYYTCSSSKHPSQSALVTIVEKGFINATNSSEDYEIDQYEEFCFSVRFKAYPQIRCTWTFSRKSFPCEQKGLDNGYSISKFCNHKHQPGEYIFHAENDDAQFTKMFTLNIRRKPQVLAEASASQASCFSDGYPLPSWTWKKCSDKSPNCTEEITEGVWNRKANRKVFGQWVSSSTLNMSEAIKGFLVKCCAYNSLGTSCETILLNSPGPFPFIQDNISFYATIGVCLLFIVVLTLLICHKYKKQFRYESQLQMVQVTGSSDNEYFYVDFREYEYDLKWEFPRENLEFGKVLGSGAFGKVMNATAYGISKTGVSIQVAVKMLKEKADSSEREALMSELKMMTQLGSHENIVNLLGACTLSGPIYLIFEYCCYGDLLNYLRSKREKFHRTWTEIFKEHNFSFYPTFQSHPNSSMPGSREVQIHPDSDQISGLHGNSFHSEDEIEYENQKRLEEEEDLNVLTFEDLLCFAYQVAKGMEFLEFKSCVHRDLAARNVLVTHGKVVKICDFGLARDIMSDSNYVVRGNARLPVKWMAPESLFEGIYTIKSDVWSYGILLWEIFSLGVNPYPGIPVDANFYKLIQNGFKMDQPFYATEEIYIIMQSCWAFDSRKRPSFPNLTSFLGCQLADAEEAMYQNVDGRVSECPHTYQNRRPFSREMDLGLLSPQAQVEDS

[3] = system: MDA-MB-468; assay: Growth inhibition of human MDA-MB-468 cells; format: functional
[4] = system: MCF7; assay: Growth inhibition of human MCF7; format: functional
[5] = system: HCC1954; assay: Growth inhibition of human HCC1954; format: functional
[6] = Lipophilicity, log D of the compound at pH 7.4; format: physicochemical; settings: buffer
[7] = Dissociation constant, pKa of the compound; format: physicochemical
[8] = target: T3, Aurora kinase A (Homo sapiens, UniProt O14965); assay: Inhibition of AURKA (unknown origin)
T3 sequence (O14965 whole entry): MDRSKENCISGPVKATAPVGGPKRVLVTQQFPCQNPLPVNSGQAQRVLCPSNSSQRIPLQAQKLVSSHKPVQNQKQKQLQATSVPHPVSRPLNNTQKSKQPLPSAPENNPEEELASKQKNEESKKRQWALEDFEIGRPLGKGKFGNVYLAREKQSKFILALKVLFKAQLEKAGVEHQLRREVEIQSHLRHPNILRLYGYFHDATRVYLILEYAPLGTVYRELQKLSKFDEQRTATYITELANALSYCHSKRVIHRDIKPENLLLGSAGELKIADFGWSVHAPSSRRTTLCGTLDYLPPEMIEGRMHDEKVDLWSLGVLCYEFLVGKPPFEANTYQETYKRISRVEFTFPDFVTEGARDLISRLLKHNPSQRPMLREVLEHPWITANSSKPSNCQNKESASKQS

[9] = target: Aurora kinase B (Homo sapiens, UniProt Q96GD4); assay: Inhibition of AURKB (unknown origin)
[10] = target: CYP2C9 (Homo sapiens, UniProt P11712); assay: Inhibition of CYP2C9 (unknown origin) at 1 uM; format: ADME
[11] = target: CYP2C19 (Homo sapiens, UniProt P33261); assay: Inhibition of CYP2C19 (unknown origin) at 1 uM; format: ADME
[12] = target: CYP3A4 (Homo sapiens, UniProt P08684); assay: Inhibition of CYP3A4 (unknown origin) at 1 uM; format: ADME
[13] = Half life in mouse microsomes; format: ADME, Microsome
[14] = Half life in human microsomes; format: ADME, Microsome
[15] = Cmax in mouse at 25 mg/kg, po; format: ADME, organism-based; parameters: dose 25 mg/kg, route oral; settings: in vivo, read-out: Cmax
[16] = AUC in mouse at 25 mg/kg, po; format: ADME, organism-based; settings: in vivo
[17] = Clearance in rat at 1 mg/kg, iv; format: ADME, organism-based; settings: in vivo
[18] = Half life in rat at 1 mg/kg, iv; format: ADME, organism-based; settings: in vivo
[19] = AUC in rat at 1 mg/kg, iv; format: ADME, organism-based; settings: in vivo
[20] = AUC in rat at 5 mg/kg, po; format: ADME, organism-based; settings: in vivo, read-out: AUC
[21] = Oral bioavailability in rat at 5 mg/kg; format: ADME, organism-based; settings: in vivo
[22] = system: MDA-MB-468; assay: Antitumor activity against human MDA-MB-468 cells xenografted in mouse assessed as tumor growth inhibition at 37.5 mg/kg, po qd for 21 days measured on day 21 post last dose relative to vehicle control; format: functional; settings: MDA-MB-468, po, 504 h, read-out: TGI
[23] = Toxicity in mouse xenografted with human MDA-MB-468 cells assessed as body weight loss at 37.5 mg/kg, po qd for 21 days measured during compound dosing relative to vehicle control; format: organism-based; settings: in vivo, 504 h
[24] = target: Vascular endothelial growth factor receptor 2 (Homo sapiens, UniProt P35968); assay: Inhibition of KDR (unknown origin)
Vascular endothelial growth factor receptor 2, sequence (P35968 whole entry): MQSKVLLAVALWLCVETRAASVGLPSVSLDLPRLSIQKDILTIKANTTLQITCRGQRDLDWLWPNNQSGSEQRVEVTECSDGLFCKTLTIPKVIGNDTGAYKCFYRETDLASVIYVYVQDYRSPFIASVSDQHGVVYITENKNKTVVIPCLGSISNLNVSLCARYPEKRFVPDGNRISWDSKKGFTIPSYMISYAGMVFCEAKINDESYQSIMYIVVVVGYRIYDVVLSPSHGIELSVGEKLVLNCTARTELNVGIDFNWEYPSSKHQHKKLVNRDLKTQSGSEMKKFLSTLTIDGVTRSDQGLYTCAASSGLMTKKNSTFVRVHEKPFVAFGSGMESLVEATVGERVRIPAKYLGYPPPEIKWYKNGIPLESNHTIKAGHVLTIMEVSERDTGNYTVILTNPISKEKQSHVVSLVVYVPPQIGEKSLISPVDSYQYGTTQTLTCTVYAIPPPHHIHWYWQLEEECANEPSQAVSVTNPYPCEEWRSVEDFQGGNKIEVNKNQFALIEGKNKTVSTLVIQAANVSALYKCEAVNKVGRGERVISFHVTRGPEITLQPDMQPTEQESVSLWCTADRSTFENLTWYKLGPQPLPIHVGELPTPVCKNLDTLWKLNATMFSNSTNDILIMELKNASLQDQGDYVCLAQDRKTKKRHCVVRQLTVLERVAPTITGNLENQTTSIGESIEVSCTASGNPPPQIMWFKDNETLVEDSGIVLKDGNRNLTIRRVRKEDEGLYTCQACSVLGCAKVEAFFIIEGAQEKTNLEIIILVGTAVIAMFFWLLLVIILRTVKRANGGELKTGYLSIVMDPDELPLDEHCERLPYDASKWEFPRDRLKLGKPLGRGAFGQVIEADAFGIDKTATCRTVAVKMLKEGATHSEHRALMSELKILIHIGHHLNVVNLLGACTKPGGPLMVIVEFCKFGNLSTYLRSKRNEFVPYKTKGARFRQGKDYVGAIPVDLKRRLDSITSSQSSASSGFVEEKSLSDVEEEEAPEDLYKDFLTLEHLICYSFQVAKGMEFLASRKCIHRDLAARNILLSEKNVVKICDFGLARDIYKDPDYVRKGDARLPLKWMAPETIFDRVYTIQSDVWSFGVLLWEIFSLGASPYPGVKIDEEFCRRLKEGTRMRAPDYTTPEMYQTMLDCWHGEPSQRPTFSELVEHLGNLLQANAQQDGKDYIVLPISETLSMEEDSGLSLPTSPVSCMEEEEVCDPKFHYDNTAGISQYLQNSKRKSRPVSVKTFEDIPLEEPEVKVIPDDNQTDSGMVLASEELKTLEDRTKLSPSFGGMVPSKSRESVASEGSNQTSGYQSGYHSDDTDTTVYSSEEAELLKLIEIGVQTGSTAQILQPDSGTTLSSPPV

Aurora kinase B, sequence (Q96GD4 whole entry): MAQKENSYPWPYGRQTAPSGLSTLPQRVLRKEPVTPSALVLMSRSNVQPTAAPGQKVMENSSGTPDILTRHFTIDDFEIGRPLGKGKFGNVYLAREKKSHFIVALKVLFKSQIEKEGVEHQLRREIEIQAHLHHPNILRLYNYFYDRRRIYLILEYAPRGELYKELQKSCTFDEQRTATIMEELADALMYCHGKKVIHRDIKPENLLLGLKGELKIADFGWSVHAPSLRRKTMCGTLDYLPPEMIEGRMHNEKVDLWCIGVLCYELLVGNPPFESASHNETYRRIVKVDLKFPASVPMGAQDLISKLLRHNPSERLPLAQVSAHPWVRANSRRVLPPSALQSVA
CYP2C19, sequence (P33261 whole entry): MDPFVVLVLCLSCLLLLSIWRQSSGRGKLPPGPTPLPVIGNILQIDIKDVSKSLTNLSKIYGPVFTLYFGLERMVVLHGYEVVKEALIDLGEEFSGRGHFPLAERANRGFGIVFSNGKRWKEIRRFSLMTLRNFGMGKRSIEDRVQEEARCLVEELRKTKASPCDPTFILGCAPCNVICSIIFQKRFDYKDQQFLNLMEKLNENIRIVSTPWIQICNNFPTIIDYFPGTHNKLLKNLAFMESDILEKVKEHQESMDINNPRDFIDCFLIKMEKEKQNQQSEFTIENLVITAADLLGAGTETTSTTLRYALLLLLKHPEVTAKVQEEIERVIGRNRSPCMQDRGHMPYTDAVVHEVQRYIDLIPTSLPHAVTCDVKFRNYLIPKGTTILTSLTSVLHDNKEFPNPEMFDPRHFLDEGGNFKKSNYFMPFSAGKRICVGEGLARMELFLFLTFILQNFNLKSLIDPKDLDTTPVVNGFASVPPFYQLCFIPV
CYP2C9, sequence (P11712 whole entry): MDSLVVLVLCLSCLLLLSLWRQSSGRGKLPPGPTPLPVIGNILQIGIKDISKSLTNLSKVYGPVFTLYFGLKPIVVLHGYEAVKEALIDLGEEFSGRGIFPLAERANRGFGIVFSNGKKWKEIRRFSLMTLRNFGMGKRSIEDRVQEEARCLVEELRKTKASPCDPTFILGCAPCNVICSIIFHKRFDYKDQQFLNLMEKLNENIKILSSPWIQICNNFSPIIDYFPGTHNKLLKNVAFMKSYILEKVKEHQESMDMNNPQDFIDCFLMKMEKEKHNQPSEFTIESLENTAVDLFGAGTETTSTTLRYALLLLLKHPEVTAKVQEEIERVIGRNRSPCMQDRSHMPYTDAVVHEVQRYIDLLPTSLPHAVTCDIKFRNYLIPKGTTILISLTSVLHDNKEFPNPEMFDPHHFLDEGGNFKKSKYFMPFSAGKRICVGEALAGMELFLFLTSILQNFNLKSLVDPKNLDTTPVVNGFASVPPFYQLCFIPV
CYP3A4, sequence (P08684 whole entry): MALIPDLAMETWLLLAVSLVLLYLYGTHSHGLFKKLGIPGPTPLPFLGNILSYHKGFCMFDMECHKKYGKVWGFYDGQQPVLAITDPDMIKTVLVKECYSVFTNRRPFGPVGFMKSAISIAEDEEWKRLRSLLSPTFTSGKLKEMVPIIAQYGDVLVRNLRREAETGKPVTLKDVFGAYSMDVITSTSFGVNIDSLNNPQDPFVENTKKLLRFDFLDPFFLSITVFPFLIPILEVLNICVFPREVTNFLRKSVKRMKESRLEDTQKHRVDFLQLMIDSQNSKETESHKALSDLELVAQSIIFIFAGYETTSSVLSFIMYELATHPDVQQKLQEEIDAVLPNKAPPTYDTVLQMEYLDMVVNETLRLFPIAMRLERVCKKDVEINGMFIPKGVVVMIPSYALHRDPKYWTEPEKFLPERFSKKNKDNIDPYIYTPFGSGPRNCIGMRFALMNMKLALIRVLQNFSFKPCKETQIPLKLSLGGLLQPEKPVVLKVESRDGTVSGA

Row | Structure (SMILES) | IC50 [1] | IC50 [2] | GI50 [3] | GI50 [4] | GI50 [5] | logD [6] | IC50 [8] | IC50 [9] | inhibition at 1 µM [10] | inhibition at 1 µM [11] | inhibition at 1 µM [12] | half-life [13] | half-life [14] | Cmax [15] | AUC [16] | clearance [17] | half-life [18] | AUC [19] | AUC [20] | bioavailability [21] | also measured
1 | COc1ccc2c(c1)[C@]1(C[C@H]1c1ccc3c(-c4ccc(C5(F)CCN(C)CC5)cc4)n[nH]c3c1)C(=O)N2 | 1.5 nM | 200 nM | 220 nM | 150 nM | 1420 nM | 4 |  |  |  |  |  |  |  |  |  |  |  |  |  |  | pKa [7]: 7.7
2 | CCN1CCN(c2ccc(-c3n[nH]c4cc([C@@H]5C[C@@]56C(=O)Nc5ccc(OC)cc56)ccc34)cc2)CC1 | 1.6 nM | 62 nM | 31 nM | 6.3 nM | 240 nM | 4.8 | > 1000 nM | 8.5 nM | 37% | 60% | 6% | 15 min | > 60 min | 1100 ng/mL | 3000 ng·h/mL | 55 mL/min/kg | 96 min | 310 ng·h/mL | 310 ng·h/mL | 11% | inhibition in vivo at 37.5 mg/kg [22]: 48%; Activity [23]: < 20%
3 | COc1ccc2c(c1)[C@]1(C[C@H]1c1ccc3c(-c4ccc(N5CCN(C)CC5)cc4)n[nH]c3c1)C(=O)N2 | 0.94 nM | 45 nM | 15 nM | 1 nM | 1400 nM | 4 | > 1000 nM | 6.9 nM | 35% | 33% | 3% | 9 min | 19 min | 710 ng/mL | 1830 ng·h/mL | 68.3 mL/min/kg | 78 min | 270 ng·h/mL | 260 ng·h/mL | 22% | IC50 [24]: 9400 nM; inhibition in vivo at 37.5 mg/kg [22]: 96%; Activity [23]: < 20%
4 | COc1ccc2c(c1)[C@]1(C[C@H]1c1ccc3c(-c4ccc(N5CCN(C)CC5)nc4)n[nH]c3c1)C(=O)N2 | 0.69 nM | 97 nM |  | 100 nM | 3300 nM | 3.3 | > 1000 nM | 10 nM | 34% | 30% | 6% | 8 min | 20 min | 71 ng/mL | 140 ng·h/mL | 63.3 mL/min/kg | 96 min | 270 ng·h/mL | 140 ng·h/mL | 10% | IC50 [24]: 14000 nM
